What was measured:
[1] = target: C-X-C chemokine receptor type 4 (Homo sapiens) (UniProt P61073); experiment: Inhibition of human CXCR4 receptor at 10 uM by CEREP assay
[2] = target: Leukotriene B4 receptor 1 (Homo sapiens) (UniProt Q15722); experiment: Inhibition of human LTB4 receptor at 10 uM by CEREP assay
[3] = target: Melanocyte-stimulating hormone receptor (Homo sapiens) (UniProt Q01726); experiment: Inhibition of MC1 receptor at 10 uM by CEREP assay
[4] = target: Melanocortin receptor 4 (Homo sapiens) (UniProt P32245); experiment: Inhibition of human MC4 receptor at 10 uM by CEREP assay
Sequence of Melanocortin receptor 4 (Homo sapiens) (P32245 whole entry): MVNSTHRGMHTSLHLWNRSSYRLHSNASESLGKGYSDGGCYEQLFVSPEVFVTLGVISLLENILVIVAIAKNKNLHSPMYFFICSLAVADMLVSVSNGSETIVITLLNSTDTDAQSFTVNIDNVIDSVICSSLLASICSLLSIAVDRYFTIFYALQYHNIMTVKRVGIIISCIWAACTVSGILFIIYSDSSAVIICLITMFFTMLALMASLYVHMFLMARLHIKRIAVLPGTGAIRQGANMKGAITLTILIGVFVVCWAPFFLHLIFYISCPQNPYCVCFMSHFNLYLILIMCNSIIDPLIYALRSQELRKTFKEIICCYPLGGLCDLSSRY

[5] = target: Muscarinic acetylcholine receptor M3 (Homo sapiens) (UniProt P20309); experiment: Inhibition of human M3 receptor at 10 uM by CEREP assay
[6] = target: Muscarinic acetylcholine receptor M4 (Homo sapiens) (UniProt P08173); experiment: Inhibition of human M4 receptor at 10 uM by CEREP assay
[7] = target: Neuromedin-K receptor (Homo sapiens) (UniProt P29371); experiment: Inhibition of human Nk3 receptor at 10 uM by CEREP assay
[8] = target: Neurotensin receptor type 1 (Homo sapiens) (UniProt P30989); experiment: Inhibition of human NT1 receptor at 10 uM by CEREP assay
Sequence of Neurotensin receptor type 1 (Homo sapiens) (P30989 whole entry): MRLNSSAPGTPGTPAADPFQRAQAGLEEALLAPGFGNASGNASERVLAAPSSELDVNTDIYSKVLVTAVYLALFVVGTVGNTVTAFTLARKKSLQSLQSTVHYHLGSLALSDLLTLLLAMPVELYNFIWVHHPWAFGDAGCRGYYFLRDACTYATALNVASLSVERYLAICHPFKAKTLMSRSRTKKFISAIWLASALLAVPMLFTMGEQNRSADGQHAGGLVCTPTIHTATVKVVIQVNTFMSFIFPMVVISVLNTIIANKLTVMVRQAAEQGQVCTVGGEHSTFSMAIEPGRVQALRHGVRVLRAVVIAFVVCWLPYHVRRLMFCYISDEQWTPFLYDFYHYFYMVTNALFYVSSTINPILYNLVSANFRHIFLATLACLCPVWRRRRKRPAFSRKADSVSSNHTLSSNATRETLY

[9] = target: Neuronal acetylcholine receptor; alpha4/beta2 (Homo sapiens) (UniProt P17787+P43681); experiment: Inhibition of neuronal alpha4beta2 nAChR at 10 uM by CEREP assay; type: protein-complex assay
[10] = target: Kappa-type opioid receptor (Homo sapiens) (UniProt P41145); experiment: Inhibition of KOP receptor at 10 uM by CEREP assay
[11] = target: Mu-type opioid receptor (Homo sapiens) (UniProt P35372); experiment: Inhibition of human MOP receptor at 10 uM by CEREP assay
[12] = target: Nociceptin receptor (Homo sapiens) (UniProt P41146); experiment: Inhibition of human ORL1 receptor at 10 uM by CEREP assay
Sequence of Nociceptin receptor (Homo sapiens) (P41146 whole entry): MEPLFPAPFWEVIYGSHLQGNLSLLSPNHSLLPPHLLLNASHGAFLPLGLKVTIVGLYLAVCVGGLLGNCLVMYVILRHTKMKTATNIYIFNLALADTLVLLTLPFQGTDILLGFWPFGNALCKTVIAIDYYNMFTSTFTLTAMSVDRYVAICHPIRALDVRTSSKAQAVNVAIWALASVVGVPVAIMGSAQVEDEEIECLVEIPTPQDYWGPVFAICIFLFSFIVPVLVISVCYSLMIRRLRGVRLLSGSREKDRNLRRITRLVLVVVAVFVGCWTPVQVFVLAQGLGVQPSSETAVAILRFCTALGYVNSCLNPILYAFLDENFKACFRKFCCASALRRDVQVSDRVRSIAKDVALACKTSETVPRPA

[13] = Inhibition of NMDA receptor PCP site at 10 uM by CEREP assay
[14] = Inhibition of P2Y receptor at 10 uM by CEREP assay
[15] = target: 5-hydroxytryptamine receptor 2A (Homo sapiens) (UniProt P28223); experiment: Inhibition of human 5-HT2A receptor at 10 uM by CEREP assay
[16] = target: Progesterone receptor (Homo sapiens) (UniProt P06401); experiment: Inhibition of human progesterone receptor at 10 uM by CEREP assay
Sequence of Progesterone receptor (Homo sapiens) (P06401 whole entry): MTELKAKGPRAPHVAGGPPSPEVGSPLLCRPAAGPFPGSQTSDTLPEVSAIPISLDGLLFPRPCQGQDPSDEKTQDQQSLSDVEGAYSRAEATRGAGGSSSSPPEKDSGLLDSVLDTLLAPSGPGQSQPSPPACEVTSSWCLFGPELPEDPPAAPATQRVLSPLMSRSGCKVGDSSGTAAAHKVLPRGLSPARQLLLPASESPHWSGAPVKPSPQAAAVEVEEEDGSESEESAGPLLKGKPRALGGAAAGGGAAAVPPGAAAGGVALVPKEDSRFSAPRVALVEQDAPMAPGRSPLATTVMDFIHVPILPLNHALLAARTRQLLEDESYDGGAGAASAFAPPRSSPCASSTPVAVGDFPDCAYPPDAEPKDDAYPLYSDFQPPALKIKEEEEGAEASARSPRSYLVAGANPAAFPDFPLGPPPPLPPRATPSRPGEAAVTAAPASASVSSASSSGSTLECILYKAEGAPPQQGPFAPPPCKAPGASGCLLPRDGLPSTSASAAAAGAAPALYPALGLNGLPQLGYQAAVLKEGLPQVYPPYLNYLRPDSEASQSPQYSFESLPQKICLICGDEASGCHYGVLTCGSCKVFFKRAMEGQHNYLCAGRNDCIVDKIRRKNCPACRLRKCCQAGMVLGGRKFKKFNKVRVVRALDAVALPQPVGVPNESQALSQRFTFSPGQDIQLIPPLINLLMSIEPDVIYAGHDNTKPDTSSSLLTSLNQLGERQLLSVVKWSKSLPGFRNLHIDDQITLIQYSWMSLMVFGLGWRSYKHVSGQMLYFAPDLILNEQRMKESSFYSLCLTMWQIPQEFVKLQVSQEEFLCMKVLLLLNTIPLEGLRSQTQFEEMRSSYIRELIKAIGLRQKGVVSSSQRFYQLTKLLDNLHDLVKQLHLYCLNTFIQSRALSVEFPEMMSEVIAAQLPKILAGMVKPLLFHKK

[17] = target: Vasopressin V1a receptor (Homo sapiens) (UniProt P37288); experiment: Inhibition of human V1a receptor at 10 uM by CEREP assay
Sequence of Vasopressin V1a receptor (Homo sapiens) (P37288 whole entry, looked up): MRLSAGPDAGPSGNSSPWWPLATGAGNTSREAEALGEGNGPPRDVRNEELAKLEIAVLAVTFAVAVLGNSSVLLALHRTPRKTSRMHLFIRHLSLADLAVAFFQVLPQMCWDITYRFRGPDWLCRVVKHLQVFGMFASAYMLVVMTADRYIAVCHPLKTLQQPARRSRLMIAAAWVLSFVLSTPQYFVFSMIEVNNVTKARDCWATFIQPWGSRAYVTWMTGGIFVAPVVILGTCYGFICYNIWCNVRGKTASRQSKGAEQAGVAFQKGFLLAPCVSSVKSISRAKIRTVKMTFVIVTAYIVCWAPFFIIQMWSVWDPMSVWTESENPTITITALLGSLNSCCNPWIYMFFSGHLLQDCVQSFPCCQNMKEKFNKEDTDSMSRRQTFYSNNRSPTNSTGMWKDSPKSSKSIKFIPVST

[18] = Inhibition of L-type Ca2+ channel diltiazem site at 10 uM by CEREP assay
[19] = Inhibition of L-type Ca2+ channel verapamil site at 10 uM by CEREP assay
[20] = Inhibition of Cl- channel at 10 uM by CEREP assay
[21] = target: Sodium-dependent noradrenaline transporter (Homo sapiens) (UniProt P23975); experiment: Inhibition of human NE transporter at 10 uM by CEREP assay
Sequence of Sodium-dependent noradrenaline transporter (Homo sapiens) (P23975 whole entry): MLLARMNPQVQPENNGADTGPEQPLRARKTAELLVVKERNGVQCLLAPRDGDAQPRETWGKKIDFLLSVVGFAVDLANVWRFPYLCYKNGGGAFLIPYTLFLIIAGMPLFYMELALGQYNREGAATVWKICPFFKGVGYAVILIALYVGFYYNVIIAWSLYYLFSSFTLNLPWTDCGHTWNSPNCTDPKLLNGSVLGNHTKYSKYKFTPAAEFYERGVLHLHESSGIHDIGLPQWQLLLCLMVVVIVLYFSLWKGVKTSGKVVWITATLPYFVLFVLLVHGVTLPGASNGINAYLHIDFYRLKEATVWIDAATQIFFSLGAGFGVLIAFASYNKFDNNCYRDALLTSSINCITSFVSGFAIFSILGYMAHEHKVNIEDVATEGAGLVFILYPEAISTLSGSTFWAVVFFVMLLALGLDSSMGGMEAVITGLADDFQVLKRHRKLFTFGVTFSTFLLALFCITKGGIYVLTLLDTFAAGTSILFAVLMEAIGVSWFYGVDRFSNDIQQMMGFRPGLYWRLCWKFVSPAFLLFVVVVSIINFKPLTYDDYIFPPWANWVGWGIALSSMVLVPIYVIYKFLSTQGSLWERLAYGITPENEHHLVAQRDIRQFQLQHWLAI

[22] = Inhibition of PDE1 at 10 uM by CEREP assay
[23] = target: Phosphodiesterase 6 (Homo sapiens) (UniProt Q13956+P18545+P35913+O43924+P16499+P51160); experiment: Inhibition of human PDE6 at 10 uM by CEREP assay; type: protein assay
[24] = target: 4-aminobutyrate aminotransferase, mitochondrial (Homo sapiens) (UniProt P80404); experiment: Inhibition of GABA transaminase at 10 uM by CEREP assay
[25] = Inhibition of Na+/K+ ATPase at 10 uM by CEREP assay
[26] = Inhibition of Adenylyl cyclase at 10 uM by CEREP assay
[27] = Inhibition of alpha 2 adrenergic receptor by CEREP assay
[28] = Oral bioavailability in mouse at 7.1 mg/kg; type: ADME, organism-based; conditions: in vivo
[29] = Inhibition of GABA receptor at 10 uM by CEREP assay
[30] = target: D(3) dopamine receptor (Homo sapiens) (UniProt P35462); experiment: Inhibition of human D3 receptor at 10 uM by CEREP assay
[31] = target: Cannabinoid receptor 1 (Homo sapiens) (UniProt P21554); experiment: Inhibition of human CB1 receptor at 10 uM by CEREP assay
Sequence of Cannabinoid receptor 1 (Homo sapiens) (P21554 whole entry): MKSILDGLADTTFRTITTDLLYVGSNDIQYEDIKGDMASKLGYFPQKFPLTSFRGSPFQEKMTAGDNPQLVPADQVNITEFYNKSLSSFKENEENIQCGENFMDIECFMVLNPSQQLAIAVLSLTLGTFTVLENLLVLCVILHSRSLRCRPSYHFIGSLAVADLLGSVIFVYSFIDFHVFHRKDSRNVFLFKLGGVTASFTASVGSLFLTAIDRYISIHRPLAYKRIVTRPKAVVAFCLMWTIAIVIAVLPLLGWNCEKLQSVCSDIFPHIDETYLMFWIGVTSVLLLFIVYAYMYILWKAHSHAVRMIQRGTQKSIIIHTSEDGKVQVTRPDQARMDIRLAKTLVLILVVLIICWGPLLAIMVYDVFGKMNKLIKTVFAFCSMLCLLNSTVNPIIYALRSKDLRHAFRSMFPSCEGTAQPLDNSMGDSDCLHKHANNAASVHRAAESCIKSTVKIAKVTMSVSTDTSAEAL

[32] = target: Type-2 angiotensin II receptor (Homo sapiens) (UniProt P50052); experiment: Inhibition of human AT2 receptor at 10 uM by CEREP assay
Sequence of Type-2 angiotensin II receptor (Homo sapiens) (P50052 whole entry): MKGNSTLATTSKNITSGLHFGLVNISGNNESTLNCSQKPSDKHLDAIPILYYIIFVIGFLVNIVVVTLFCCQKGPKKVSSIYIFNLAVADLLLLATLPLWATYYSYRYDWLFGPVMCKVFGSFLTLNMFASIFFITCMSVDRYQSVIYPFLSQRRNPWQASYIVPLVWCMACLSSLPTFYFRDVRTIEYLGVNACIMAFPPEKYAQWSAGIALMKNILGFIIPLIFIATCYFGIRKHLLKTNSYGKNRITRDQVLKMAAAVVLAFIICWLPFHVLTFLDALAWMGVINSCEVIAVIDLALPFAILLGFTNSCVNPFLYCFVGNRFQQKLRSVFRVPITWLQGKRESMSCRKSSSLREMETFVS

[33] = Inhibition of alpha 1 adrenergic receptor at 10 uM by CEREP assay
[34] = Inhibition of alpha 2 adrenergic receptor at 10 uM by CEREP assay
[35] = target: Adenosine receptor A2a (Homo sapiens) (UniProt P29274); experiment: Inhibition of human A2A receptor at 10 uM by CEREP assay

Sequence of Melanocyte-stimulating hormone receptor (Homo sapiens) (Q01726 whole entry, looked up): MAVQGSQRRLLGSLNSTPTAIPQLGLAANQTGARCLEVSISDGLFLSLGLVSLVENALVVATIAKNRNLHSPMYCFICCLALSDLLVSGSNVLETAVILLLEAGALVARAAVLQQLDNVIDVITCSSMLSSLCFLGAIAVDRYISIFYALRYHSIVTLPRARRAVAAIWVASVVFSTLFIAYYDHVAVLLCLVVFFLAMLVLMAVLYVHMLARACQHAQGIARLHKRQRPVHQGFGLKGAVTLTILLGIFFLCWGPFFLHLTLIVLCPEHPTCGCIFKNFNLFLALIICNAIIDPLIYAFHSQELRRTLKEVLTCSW
Sequence of Leukotriene B4 receptor 1 (Homo sapiens) (Q15722 whole entry): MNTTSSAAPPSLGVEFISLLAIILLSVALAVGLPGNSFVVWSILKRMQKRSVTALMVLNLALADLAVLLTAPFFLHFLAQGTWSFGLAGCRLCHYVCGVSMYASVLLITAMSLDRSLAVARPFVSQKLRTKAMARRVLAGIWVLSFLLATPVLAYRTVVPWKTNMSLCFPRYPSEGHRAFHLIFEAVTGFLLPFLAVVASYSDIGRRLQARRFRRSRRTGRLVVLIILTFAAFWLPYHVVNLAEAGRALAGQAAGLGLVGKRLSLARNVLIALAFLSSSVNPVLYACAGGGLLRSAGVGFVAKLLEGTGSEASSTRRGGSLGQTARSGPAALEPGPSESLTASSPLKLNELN
Sequence of C-X-C chemokine receptor type 4 (Homo sapiens) (P61073 whole entry): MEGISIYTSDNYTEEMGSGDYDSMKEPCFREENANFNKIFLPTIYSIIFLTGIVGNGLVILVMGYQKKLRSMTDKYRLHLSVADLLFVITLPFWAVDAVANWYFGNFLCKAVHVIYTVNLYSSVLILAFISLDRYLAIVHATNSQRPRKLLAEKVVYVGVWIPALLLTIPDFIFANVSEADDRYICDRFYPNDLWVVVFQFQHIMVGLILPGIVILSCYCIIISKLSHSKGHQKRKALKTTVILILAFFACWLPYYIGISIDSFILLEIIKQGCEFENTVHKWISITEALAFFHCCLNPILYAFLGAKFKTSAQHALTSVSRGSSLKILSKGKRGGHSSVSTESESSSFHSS

CCc1cccc(CC)c1Cc1ncc[nH]1
inhibition [1]: 11%
inhibition [2]: 5%
inhibition [3]: 2%
inhibition [4]: -4%
inhibition [5]: 25%
inhibition [6]: 31%
inhibition [7]: 10%
inhibition [8]: -3%
inhibition [9]: 7%
inhibition [10]: 19%
inhibition [11]: 8%
inhibition [12]: -3%
inhibition [13]: 45%
inhibition [14]: 1%
inhibition [15]: -5%
inhibition [16]: -2%
inhibition [17]: 1%
inhibition [18]: 34%
inhibition [19]: 10%
inhibition [20]: 3%
inhibition [21]: -1%
inhibition [22]: 7%
inhibition [23]: 6%
inhibition [24]: 17%
inhibition [25]: -1%
inhibition [26]: 2%
Ki [27]: 2.4 µM
bioavailability [28]: 21%
inhibition [29]: -10%
inhibition [30]: 10%
inhibition [31]: 4%
inhibition [32]: -3%
inhibition [33]: 23%
inhibition [34]: 73%
inhibition [35]: -6%

From ChEMBL document CHEMBL2203234, “Optimisation of imidazole compounds as selective TAAR1 agonists: discovery of RO5073012” (Bioorg Med Chem Lett, 2012)
